Assay results as given in PMC10791743, “Selective CK1α degraders exert antiproliferative activity against a broad range of human cancer cell lines” (Nature Communications, 2024).
Several values for one entry are separate records, joined by “and”; a condition that tells them apart may be missing. Identical values can stand only once.

Key:
[1] = molecular target: T1, CK1α-CRBN ternary complex (Homo sapiens, UniProt P48729+Q96SW2); test: Live cell CK1α-CRBN ternary complex NanoBRET assay; assay type: cell-based
T1 construct: engineered by CRISPR/Cas9 to express endogenous CK1α (HEK293 cells) or IKZF1 (Jurkat cells) with a HiBiT tag; CS3023104 (cells)
Method: CSNK1A1CK1α-HiBiT HEK293 LgBiT stable cells weretransfected with a HaloTag-CRBN vector (Promega, Cat. #N269A) using Fugene HD (Promega, Cat. #E2311). […] Plates were incubated overnight at 37 °C with 5% CO2. On day 3, a dose–response curve was generated by performing 3-fold dilutions of each compound including a DMSO-only control in OptiMEM I Reduced Serum Medium, no phenol red supplemented with 4% FBS. Cells were treated with MG132 (Selleckchem, Cat. #S2619) for 30 min before being treated with the dilution series of compounds. Plates were incubated for 2 h at 37 °C with 5% CO2. After 2 h, plates were read using NanoBRET Nano-Glo substrate (Promega #N1573) on a GloMax Discover following the manufacturer’s instructions. No ligand controls were subtracted from each sample and normalized to the no compound DMSO control to obtain Fractional BRET values. EC50 values were calculated for each compound curve.

[2] = Liver microsomes stability assay, human; assay type: in vitro ADME
Method: page 31: using a REMS Autosampler (World Precision Instruments, Sarasota, […]1 cells were grown for 5 days to reach a consistent confluency level monitored by epithelial voltohmmeter to confirm the intactness of the confluent polarized monolayer. For transport experiments, each cultured monolayer on the 96-well plate was washed twice with a transport buffer (HBSS/25 mM […] The cell-based permeability assay was initiated by the addition of each compound solution (10 μmol/L) into inserts (apical side, A) or receivers (basolateral side, B). After incubated […] (if basal to apical permeability), and concentrations were assessed by UPLC/MS (Waters; Milford, MA). All compounds were tested in triplicates. The A→B (or B→A) apparent permeability coefficients (Papp) of each compound were calculated using the equation (3): […], where dQ/dt equals the flux of a drug across the monolayer, the parameters of A equals the surface area of total insert well, and C0 is the initial concentration of substrate in the donor compartment. The efflux ratio was determined by dividing the Papp in the B-A direction by the Papp in the A-B direction. […] NADPH regenerating agent solutions A and B (Corning GentestTM, Cat. No: 451220) were purchased from Discovery Labware (Woburn, MA). Mouse liver microsomes (CD-1, pooled, GibcoTM, Cat. No: MSMCPL) were obtained from Thermo Fisher Scientific (Fredrick, MD). Pooled human liver microsomes (mixed gender, Cat. No: E0630) were purchased from XenoTech (Lenexa, KS). Stock solutions of test compounds were prepared at 10 mM in DMSO. Sample preparation for microsomal stability was modified from Di's publications3,4. […] and 4 hours) by Labcyte Echo 650 acoustic dispenser (Beckman Coulter Life Sciences, Indianapolis, IN). All compounds were tested in triplicate per time point. […] Plasma stability assay5: The degradation of human or mouse plasma was assessed by monitoring the gradual reduction of the parent compound over specified time intervals (0, 3, 24, and 48 hours). […]

T1 sequence (Q96SW2 whole entry): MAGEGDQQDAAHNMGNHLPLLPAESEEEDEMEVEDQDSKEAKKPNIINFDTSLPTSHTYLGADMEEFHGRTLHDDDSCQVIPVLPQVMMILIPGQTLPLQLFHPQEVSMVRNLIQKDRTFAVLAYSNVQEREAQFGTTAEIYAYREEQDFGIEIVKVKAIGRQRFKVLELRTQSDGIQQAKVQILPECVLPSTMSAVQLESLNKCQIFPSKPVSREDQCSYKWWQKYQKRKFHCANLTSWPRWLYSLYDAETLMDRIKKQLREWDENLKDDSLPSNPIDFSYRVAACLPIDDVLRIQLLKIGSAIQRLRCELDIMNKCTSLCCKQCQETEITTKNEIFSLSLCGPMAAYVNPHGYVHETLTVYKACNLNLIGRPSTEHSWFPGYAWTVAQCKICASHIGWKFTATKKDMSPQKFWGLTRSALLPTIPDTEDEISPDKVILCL
T1 sequence (P48729 whole entry): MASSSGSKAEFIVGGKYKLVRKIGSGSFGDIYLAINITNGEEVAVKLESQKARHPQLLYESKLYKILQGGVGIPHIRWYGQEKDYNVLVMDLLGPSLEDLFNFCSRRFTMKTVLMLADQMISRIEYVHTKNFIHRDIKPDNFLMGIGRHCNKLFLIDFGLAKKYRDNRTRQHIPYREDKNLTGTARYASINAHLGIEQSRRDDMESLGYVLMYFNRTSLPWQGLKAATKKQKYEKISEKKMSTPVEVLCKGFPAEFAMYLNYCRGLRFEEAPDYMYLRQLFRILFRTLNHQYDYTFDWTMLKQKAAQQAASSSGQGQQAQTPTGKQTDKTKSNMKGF
T1 sequence (Q16531 whole entry partner): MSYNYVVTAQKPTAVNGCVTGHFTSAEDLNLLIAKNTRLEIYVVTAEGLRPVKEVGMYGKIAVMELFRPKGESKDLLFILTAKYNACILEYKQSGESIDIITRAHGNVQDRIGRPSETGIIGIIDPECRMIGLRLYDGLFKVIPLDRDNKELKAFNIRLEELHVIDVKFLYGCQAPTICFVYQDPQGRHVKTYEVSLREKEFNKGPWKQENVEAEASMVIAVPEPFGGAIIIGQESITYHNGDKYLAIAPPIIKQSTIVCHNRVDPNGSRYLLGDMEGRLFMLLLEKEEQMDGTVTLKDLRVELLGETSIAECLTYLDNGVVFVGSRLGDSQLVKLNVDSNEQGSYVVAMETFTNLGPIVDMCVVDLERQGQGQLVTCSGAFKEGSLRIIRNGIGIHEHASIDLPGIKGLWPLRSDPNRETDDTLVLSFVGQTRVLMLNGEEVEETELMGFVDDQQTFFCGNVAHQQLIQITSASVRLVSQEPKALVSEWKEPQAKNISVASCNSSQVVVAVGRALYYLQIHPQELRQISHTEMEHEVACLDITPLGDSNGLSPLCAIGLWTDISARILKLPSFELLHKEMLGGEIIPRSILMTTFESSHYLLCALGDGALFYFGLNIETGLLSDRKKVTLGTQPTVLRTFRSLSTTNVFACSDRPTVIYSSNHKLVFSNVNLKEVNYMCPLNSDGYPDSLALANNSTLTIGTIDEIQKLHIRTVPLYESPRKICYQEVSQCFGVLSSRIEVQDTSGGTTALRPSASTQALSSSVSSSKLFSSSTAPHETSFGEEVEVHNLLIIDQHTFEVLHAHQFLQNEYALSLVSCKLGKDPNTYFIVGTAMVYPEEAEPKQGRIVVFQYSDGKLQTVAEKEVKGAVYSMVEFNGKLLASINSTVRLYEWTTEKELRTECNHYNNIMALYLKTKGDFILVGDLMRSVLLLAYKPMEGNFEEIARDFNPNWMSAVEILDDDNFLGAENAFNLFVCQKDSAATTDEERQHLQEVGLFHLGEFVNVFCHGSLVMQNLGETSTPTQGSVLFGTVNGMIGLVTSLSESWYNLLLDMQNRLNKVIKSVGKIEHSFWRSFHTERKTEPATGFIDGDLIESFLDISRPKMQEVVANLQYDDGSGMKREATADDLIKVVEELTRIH

| SMILES | CK1a: CRBN Ternary Complex NanoBRET Ratio ([1]; 0.111 uM) | CK1a: CRBN Ternary Complex NanoBRET Ratio, Normalized ([1]; 0.111 uM) | CK1a: CRBN Ternary Complex NanoBRET Ratio ([1]; 0.333 uM) | CK1a: CRBN Ternary Complex NanoBRET Ratio, Normalized ([1]; 0.333 uM) | CK1a: CRBN Ternary Complex NanoBRET Ratio ([1]; 1 uM) | CK1a: CRBN Ternary Complex NanoBRET Ratio, Normalized ([1]; 1 uM) | CK1a: CRBN Ternary Complex NanoBRET Ratio ([1]; 3 uM) | CK1a: CRBN Ternary Complex NanoBRET Ratio, Normalized ([1]; 3 uM) | CK1a: CRBN Ternary Complex NanoBRET Ratio ([1]; 10 uM, replicates) | CK1a: CRBN Ternary Complex NanoBRET Ratio, Normalized ([1]; 10 uM, replicates) | Ternary complex formation (NanoBRET signal) ([1]; 2 h treatment) | half-life at 10 µM ([2]; both sexes, human, liver microsomes, pH 7.4, read-out: Microsome stability t1/2) [h] | Ke [2] | t(1/2) [2] |
| --- | --- | --- | --- | --- | --- | --- | --- | --- | --- | --- | --- | --- | --- | --- |
| O=C1CCC(N2Cc3cc(Nc4noc5ccccc45)ccc3C2=O)C(=O)N1 (stereo not drawn) [SJ3149] | 3.47 mBU and 2.55 mBU and 2.79 mBU | 23.75 and 17.45 and 19.07 | 4.12 mBU and 3.68 mBU and 3.78 mBU | 28.17 and 25.18 and 25.82 | 4.59 mBU and 4.78 mBU and 4.4 mBU | 31.39 and 32.66 and 30.10 | 4.96 mBU and 4.79 mBU and 5.46 mBU | 33.90 and 32.75 and 37.33 | 5.57 mBU and 5.32 mBU and 5.78 mBU | 38.09 and 36.40 and 39.49 | most robust complex formation | > 10 | – | – |
| O=C1CCC(N2Cc3c(CNC(=O)c4ccc(F)cc4)cccc3C2=O)C(=O)N1 (stereo not drawn) [SJ7095] | 3.3 mBU and 3.11 mBU and 3.22 mBU and 2.76 mBU | 3.03 and 2.85 and 2.95 and 2.53 | 4.47 mBU and 5.14 mBU and 4.06 mBU and 4.1 mBU | 4.10 and 4.71 and 3.72 and 3.76 | 5.33 mBU and 5.06 mBU and 5.38 mBU and 4.31 mBU | 4.89 and 4.64 and 4.93 and 3.95 | 5.47 mBU and 7.05 mBU and 5.71 mBU and 6.74 mBU | 5.01 and 6.46 and 5.23 and 6.18 | 7.23 mBU and 6.62 mBU and 6.74 mBU and 6.49 mBU | 6.63 and 6.07 and 6.18 and 5.95 | – | – | – | – |
| O=C1CCC(N2Cc3cc(Nc4noc5ccccc45)ccc3C2=O)C(=O)N1 (stereo not drawn) [SJ001043149-1] | – | – | – | – | – | – | – | – | – | – | – | – | -0.00692 | -100.22 |
